Measured values reported in patent publication US20150322033A1, “ANTIBACTERIAL AGENT” (priority 2012, published 2015).
Values after ≈ are worked out from the molar mass of the structure shown. Where two headings read alike, the source gives them in different places.

Tests used:
[1] = test system: S. aureus MS5935-1; test: MIC for S. aureus MS5935-1; assay type: cell-based; settings: Staphylococcus aureus, MS59351
Experimental: (§1) The levofloxacin-susceptible Staphylococcus aureus strain MS5935-1 (strain in which the 80th serine residue from the amino terminus of the wild-type topoisomerase IV encoded by parC is mutated with phenylalanine residue, see, Hiramatsu K., Igarashi M., Morimoto Y, Baba T., Umekita M., Akamatsu Y., Int. J. Antimicrob. Agents, 2012 June; 39(6), 478-85) was cultured overnight at 37° C. with shaking in 4 mL of TBS (produced by Dickinson). After completion of the culture, the cells were suspended in fresh TBS, and the cell suspension was adjusted to have an absorbance of 0.3 measured at 578 nm. Then, the cell suspension was diluted 10,000 times with TBS. This diluted cell suspension was inoculated (0.1 mL each) into ten test tubes containing 4 mL each of TBS, and preculture was carried out overnight at 37° C.

[2] = test system: S. aureus FDA209P (ATCC 6538P); test: microbe, parasite or virus in culture; assay type: cell-based, Staphylococcus aureus; settings: Staphylococcus aureus
Procedure, shortened: (§2)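 Overnight TSB cultures at 37 °C adjusted to A578 0.3, diluted 500-fold in CAMHB and mixed 1:1 with compound in CAMHB; static overnight incubation at 37 °C. MIC reported in mg/L; Mu50 NR-1 also tested in some runs.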

[3] = test system: S. aureus Mu50; test: microbe, parasite or virus in culture; assay type: cell-based, Staphylococcus aureus; settings: for MIC ratio: (MIC value for S. aureus FDA209P)/(MIC value for S. aureus Mu50); for MIC: Staphylococcus aureus
Procedure, shortened: as §2

[4] = test system: S. aureus Mu50 NR1-1; test: MIC by broth microdilution, S. aureus Mu50 NR1-1; assay type: cell-based; settings: Staphylococcus aureus, MU50NR11; Example 3, Table 13; read-out: MIC (mg/L) Mu50 NR1-1 (S80F, w)
Experimental: MIC values of the flavones and quinolone for the strains were measured in the same manners as those of Example 1, except that S. aureus Mu50 NR-1 was also used as Staphylococcus aureus in addition to S. aureus FDA209P and S. aureus Mu50, cell suspensions of the strains were prepared.
S. aureus Mu50 NR1-1 mentioned in Table 13 is a strain selected stepwise from the clinically isolated S. aureus Mu50 strain with deoxynybomycin, and it has a topoisomerase IV encoded by parC in which a […] (see, Hiramatsu K. et al., J. Antimicrob. Agents, 2012, June; 39 (6), 478-85).
In Table 13, the descriptions in the parentheses after the strains indicate the mutated amino acid residue and its position, as represented by (the mutation of topoisomerase IV resulting from the mutation of parCand the mutation of DNA gyrase resulting from the mutation of gyrA). The character “w” means wild-type, representing without mutation.

[5] = test system: levofloxacin-susceptible Staphylococcus aureus strain MS5935-1; test: Emergence frequency of levofloxacin-resistant Staphylococcus aureus on agar plate medium; assay type: cell-based; settings: for Emergence frequency of levofloxacin resistance mutation (mutations/genera): FALCOR
Text: Emergence frequency of levofloxacin-resistant Staphylococcus aureus was examined in the presence or absence of apigenin by using a levofloxacin-susceptible Staphylococcus aureus strain according to the following method.
as §1
Levofloxacin was dissolved in sterilized water at a concentration of 40 mg/L. This solution of levofloxacin was added on plates in a volume of 1 mL/plate, and 9 mL of M-H (Mueller Hinton) Agar (produced by Becton, Dickinson and Company) was added to each plate. Five of such plates were prepared. […]
Number of the colonies formed on each agar plate medium after the culture of 2 days was counted. The emergence frequency of levofloxacin-resistant Staphylococcus aureus was calculated according to the following equation using the number of colonies and the number of bacterial cells inoculated onto each agar plate medium (CFU, colony forming unit). Further, from the calculated emergence frequency of the levofloxacin-resistant Staphylococcus aureus, emergence frequency of levofloxacin resistance mutation and 95% confidence interval (CI range) were calculated by using FALCOR (Fluctuation AnaLysis CalculatOR, http://www.keshaysingh.org/protocols/FALCOR.html, see, Hall B. M. et al., Bioinformatics., 2009, 25(12), 1564-5). […]

[6] = Example 2, Table 12, read-out: MIC (mg/L) S. aureus FDA209P
[7] = Example 3, Table 13, read-out: MIC (mg/L) FDA209P (w, w)
[8] = MU50, read-out: MIC (mg/L) S. aureus Mu50, Example 2, Table 12
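Throughout, for MIC ratio: ratio is FDA209P MIC divided by Mu50 MIC.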

Work on `O=c1cc(-c2ccc(O)cc2)oc2cc(O)cc(O)c12` [No. 7, 4′,5,7-Trihydroxyflavone] yielded an MIC [1] of over 128 µg/mL, an MIC ([2]; Example 1, Tables 1 to 10, read-out: MIC (mg/L) FDA209P) of over 128 mg/L and an MIC [2, 6] of over 128 mg/L. For the same molecule, the MIC [2, 7] was over 128 mg/L, the MIC ratio [3] was over 32 and the MIC ratio ([3]; listed as apigenin) was at least 32. The MIC ([3]; MU50, read-out: MIC (mg/L) Mu50, Example 1, Tables 1 to 10) was 4 mg/L (≈ 14.8 µM), the MIC [3, 8] was 4 mg/L (≈ 14.8 µM) and the MIC [4] was over 128 mg/L. The “Emergence frequency of levofloxacin resistance mutation, medium with levofloxacin and apigenin / medium with levofloxacin” value ([5]; LVFX 4 mg/L, apigenin 32 mg/L) was 1/29 and the “Emergence frequency of levofloxacin resistance mutation (mutations/genera)” value ([5]; agar plate medium with LVFX 4 mg/L and apigenin 32 mg/L) was 0.05 × 10^−9 mutations/genera.
Molecule `C[C@H]1COc2c(N3CCN(C)CC3)c(F)cc3c(=O)c(C(=O)O)cn1c23` [Levofloxacin, levofloxacin, reference compound] has an MIC [1] of 0.5 µg/mL (≈ 1.38 µM), an MIC [2, 6] of 0.125 mg/L (≈ 0.346 µM) and an MIC [2, 7] of 0.125 mg/L (≈ 0.346 µM). It also gave an MIC ratio [3] of 0.016, an MIC [3, 8] of 8 mg/L (≈ 22.1 µM) and an MIC [4] of 1 mg/L (≈ 2.77 µM). The “Emergence frequency of levofloxacin resistance mutation (mutations/genera)” value ([5]; agar plate medium with LVFX 4 mg/L, apigenin 0) was 1.45 × 10^−9 mutations/genera.
